Experimental data taken from PMC9569184, “Antigenic molecular mimicry in viral-mediated protection from cancer: the HIV case” (Journal of Translational Medicine, 2022).

Tests used:
[1] = target: T1, HLA-A*02:01 molecule (Homo sapiens, UniProt P04439, D140Y/D185E/D98H/E176V/E277Q/G131W/G231S/I119V/I121R/I166T/I218V/L300P/L318F/N151K/N90K/P208A/P217A/Q86G/Q94H/R138H/R169H/T345S); test: Peptide binding affinity assay in TAP-deficient T2 cells; type: cell-based; details: peptide 5, 10, 20, 50 and 100 μM, 16 h at 27°C + 2 h at 37 °C, anti HLA-A2 R-PE, flow cytometry, triplicate
T1 construct: host or cells: T2 (174xCEM.T2) human TAP-deficient cells
Description: Peptide binding affinity to HLA-A*02:01 molecule and BFA decay assays were performed for each candidate peptide. Human TAP-deficient T2 cell line (174xCEM.T2; ATCC CRL 1992™) was purchased from American Type Culture Collection (ATCC; https://www.atcc.org/) and cultured in Iscove's modified Dulbecco's medium (IMDM; Gibco Life Technologies) containing 25 mM HEPES and 2 mM L-Glut, supplemented with 20% fetal bovine serum (FBS; Capricorn Scientific GmbH), 100 IU/ml penicillin and 100 μg/ml streptomycin (Gibco Life Technologies). Cells were maintained at 37 °C in a humidified incubator with 5% CO2. Briefly, T2 were seeded at 3.5 × 10^5 cells per well in 24 well plates and incubated 16 h at 27°C with peptides (final concentrations: 5, 10, 20, 50 and 100 μM) in IMDM serum free medium. The next day, cells have been incubated for additional 2 h at 37 °C. Following incubation, cells were harvested and centrifuged at 200 × g for 5 min. Subsequently, cells were washed twice with phosphate buffered saline (1X PBS; Gibco Life Technologies) and stained with R-PE conjugated anti human HLA-A2 mono-clonal antibody (cat. 343,306; BioLegend), for 30 min at 4 °C, and analyzed with the Attune™ NxT flow cytometer (Thermo Fisher Scientific). […] A fluorescence index (FI) was calculated using the following formula: FI = [mean fluorescence intensity (MFI) sample – MFI background]/MFI background, where MFI background represents the value without peptide. […] Cells were harvested every two hours (T0, T2, T4, T6, T8), washed with phosphate buffered saline (1X PBS; Gibco Life Technologies), stained with anti HLA-A*0201 fluorescent monoclonal antibody (cat. 343,306; BioLegend) and analyzed by flow cytometry. The stability of each peptide bound to HLA-A*02:01 was measured as the DC50 value, which was defined as an estimate of the time required for a 50% reduction of the MFI value at time 0. The DC50 value was calculated according to the formula: MFI at indicated time points/MFI at time 0 × 100. […]

[2] = target: T1, HLA-A*02:01 molecule; test: BFA decay assay (peptide-MHC dissociation) in T2 cells; type: cell-based; details: peptide 50 μM, 1X BFA 1 h at 37°C, harvested every two hours T0-T8, flow cytometry, triplicate
Description: Cells were maintained at 37 °C in a humidified incubator with 5% CO2.

| Sequence | binding to HLA-A*02:01 (HLA surface expression on T2 cells) [1] | 50% dissociation value (Thalf), peptide-MHC dissociation kinetics [2] |
| --- | --- | --- |
| VIAGIVALV | dose-dependent increase in the HLA surface expression on T2 cells over the background | – |
| VVAGIIALV | dose-dependent increase in the HLA surface expression on T2 cells over the background | – |
| VVAGIVVLV [TAA derived from the colon ca-associated EPCAM protein] | dose-dependent increase in the HLA surface expression on T2 cells over the background | 4 h |
